The NIST ThermoML archive (doi:10.1021/je900916e)

Assay: cn = amount concentration of the nth substance listed, in mol/dm3
Settings: 101 kPa, Liquid, Advanced Conductivity Orion 162A

C[N+](C)(C)C.O=C([O-])C(F)(F)C(F)(F)C(F)(F)C(F)(F)C(F)(F)C(F)(F)C(F)(F)F [tetramethylammonium perfluorooctanoate] + O
Settings | electrical conductivity [S/m]
288.15 K, c1 = 0.001316 | 0.00725
288.15 K, c1 = 0.002597 | 0.0135
288.15 K, c1 = 0.003846 | 0.01958
288.15 K, c1 = 0.005063 | 0.0253
288.15 K, c1 = 0.00625 | 0.0306
288.15 K, c1 = 0.007407 | 0.0357
288.15 K, c1 = 0.008536 | 0.0405
288.15 K, c1 = 0.009638 | 0.0451
288.15 K, c1 = 0.01071 | 0.0494
288.15 K, c1 = 0.01176 | 0.0536
288.15 K, c1 = 0.01279 | 0.0574
288.15 K, c1 = 0.01379 | 0.0598
288.15 K, c1 = 0.01477 | 0.0611
288.15 K, c1 = 0.01573 | 0.0622
288.15 K, c1 = 0.01704 | 0.0637
288.15 K, c1 = 0.01848 | 0.0656
288.15 K, c1 = 0.02004 | 0.0675
288.15 K, c1 = 0.02171 | 0.0693
288.15 K, c1 = 0.02331 | 0.0714
288.15 K, c1 = 0.02485 | 0.0732
293.15 K, c1 = 0.001316 | 0.00808
293.15 K, c1 = 0.002597 | 0.01512
293.15 K, c1 = 0.003846 | 0.0218
293.15 K, c1 = 0.005063 | 0.0282
293.15 K, c1 = 0.00625 | 0.0341
293.15 K, c1 = 0.007407 | 0.0401
293.15 K, c1 = 0.008537 | 0.0455
293.15 K, c1 = 0.009638 | 0.0503
293.15 K, c1 = 0.01071 | 0.0551
293.15 K, c1 = 0.01176 | 0.0597
293.15 K, c1 = 0.01279 | 0.0634
293.15 K, c1 = 0.01379 | 0.0657
293.15 K, c1 = 0.01477 | 0.0675
293.15 K, c1 = 0.01573 | 0.0691
293.15 K, c1 = 0.01667 | 0.0706
293.15 K, c1 = 0.01803 | 0.0726
293.15 K, c1 = 0.01935 | 0.0745
293.15 K, c1 = 0.02063 | 0.0764
293.15 K, c1 = 0.02187 | 0.0781
293.15 K, c1 = 0.02347 | 0.0803
293.15 K, c1 = 0.025 | 0.0825
298.15 K, c1 = 0.001234 | 0.0087
298.15 K, c1 = 0.002439 | 0.01642
298.15 K, c1 = 0.003614 | 0.0236
298.15 K, c1 = 0.004762 | 0.0304
298.15 K, c1 = 0.005882 | 0.0371
298.15 K, c1 = 0.006977 | 0.0435
298.15 K, c1 = 0.008046 | 0.0498
298.15 K, c1 = 0.009091 | 0.0554
298.15 K, c1 = 0.01011 | 0.0612
298.15 K, c1 = 0.01111 | 0.0661
298.15 K, c1 = 0.01209 | 0.0713
298.15 K, c1 = 0.01304 | 0.0744
298.15 K, c1 = 0.01398 | 0.0766
298.15 K, c1 = 0.01489 | 0.0785
298.15 K, c1 = 0.01579 | 0.0801
298.15 K, c1 = 0.0171 | 0.0823
298.15 K, c1 = 0.01837 | 0.0844
298.15 K, c1 = 0.02 | 0.087
298.15 K, c1 = 0.02157 | 0.0895
298.15 K, c1 = 0.02308 | 0.092
298.15 K, c1 = 0.02453 | 0.0944
298.15 K, c1 = 0.02593 | 0.0968
303.15 K, c1 = 0.001316 | 0.00997
303.15 K, c1 = 0.002597 | 0.01874
303.15 K, c1 = 0.003846 | 0.0272
303.15 K, c1 = 0.005063 | 0.0352
303.15 K, c1 = 0.00625 | 0.0427
303.15 K, c1 = 0.007407 | 0.0498
303.15 K, c1 = 0.008537 | 0.0566
303.15 K, c1 = 0.009638 | 0.063
303.15 K, c1 = 0.01071 | 0.0691
303.15 K, c1 = 0.01176 | 0.0748
303.15 K, c1 = 0.01279 | 0.0795
303.15 K, c1 = 0.01379 | 0.0823
303.15 K, c1 = 0.01477 | 0.0844
303.15 K, c1 = 0.01573 | 0.0864
303.15 K, c1 = 0.01667 | 0.0884
303.15 K, c1 = 0.01803 | 0.0912
303.15 K, c1 = 0.01935 | 0.0938
303.15 K, c1 = 0.02063 | 0.0964
303.15 K, c1 = 0.02187 | 0.0988
303.15 K, c1 = 0.02347 | 0.1017
303.15 K, c1 = 0.025 | 0.1045
308.15 K, c1 = 0.001316 | 0.01109
308.15 K, c1 = 0.002597 | 0.0209
308.15 K, c1 = 0.003846 | 0.0302
308.15 K, c1 = 0.005063 | 0.0388
308.15 K, c1 = 0.00625 | 0.0475
308.15 K, c1 = 0.007407 | 0.0554
308.15 K, c1 = 0.008536 | 0.0626
308.15 K, c1 = 0.009638 | 0.07
308.15 K, c1 = 0.01071 | 0.077
308.15 K, c1 = 0.01176 | 0.0828
308.15 K, c1 = 0.01279 | 0.0888
308.15 K, c1 = 0.01379 | 0.0918
308.15 K, c1 = 0.01477 | 0.095
308.15 K, c1 = 0.01573 | 0.0969
308.15 K, c1 = 0.01667 | 0.0996
308.15 K, c1 = 0.01758 | 0.101
308.15 K, c1 = 0.01848 | 0.1029
308.15 K, c1 = 0.02021 | 0.1067
308.15 K, c1 = 0.02188 | 0.1102
308.15 K, c1 = 0.02347 | 0.1136
308.15 K, c1 = 0.025 | 0.1168
308.15 K, c1 = 0.02647 | 0.1208
313.15 K, c1 = 0.001316 | 0.01241
313.15 K, c1 = 0.002597 | 0.0231
313.15 K, c1 = 0.003846 | 0.0333
313.15 K, c1 = 0.005063 | 0.0428
313.15 K, c1 = 0.00625 | 0.0521
313.15 K, c1 = 0.007407 | 0.0608
313.15 K, c1 = 0.008537 | 0.0687
313.15 K, c1 = 0.009638 | 0.0765
313.15 K, c1 = 0.01071 | 0.0841
313.15 K, c1 = 0.01176 | 0.0905
313.15 K, c1 = 0.01279 | 0.0971
313.15 K, c1 = 0.01379 | 0.1009
313.15 K, c1 = 0.01477 | 0.1039
313.15 K, c1 = 0.01573 | 0.1067
313.15 K, c1 = 0.01667 | 0.1091
313.15 K, c1 = 0.01803 | 0.1125
313.15 K, c1 = 0.01935 | 0.1158
313.15 K, c1 = 0.02063 | 0.119
313.15 K, c1 = 0.02187 | 0.122
313.15 K, c1 = 0.02347 | 0.1258
313.15 K, c1 = 0.025 | 0.1294
318.15 K, c1 = 0.001316 | 0.01322
318.15 K, c1 = 0.002597 | 0.0253
318.15 K, c1 = 0.003846 | 0.0367
318.15 K, c1 = 0.005063 | 0.0466
318.15 K, c1 = 0.00625 | 0.0564
318.15 K, c1 = 0.007407 | 0.0659
318.15 K, c1 = 0.008536 | 0.0745
318.15 K, c1 = 0.009638 | 0.0838
318.15 K, c1 = 0.01071 | 0.0921
318.15 K, c1 = 0.01176 | 0.0993
318.15 K, c1 = 0.01279 | 0.1064
318.15 K, c1 = 0.01379 | 0.1119
318.15 K, c1 = 0.01477 | 0.1156
318.15 K, c1 = 0.01573 | 0.1188
318.15 K, c1 = 0.01667 | 0.1218
318.15 K, c1 = 0.01803 | 0.1263
318.15 K, c1 = 0.01935 | 0.1307
318.15 K, c1 = 0.02105 | 0.1349
318.15 K, c1 = 0.02268 | 0.14
318.15 K, c1 = 0.02424 | 0.1434
318.15 K, c1 = 0.02574 | 0.1473
